Patent publication US20260001928A1 (CORTERIA PHARMACEUTICALS, priority 2022, published 2026)
*1 amine or outer side, *2 acyl side, *3 side chain or, on linkers, in order; H or OH if unused. Where a SMILES comes first, the peptide text is derived from it. Side-chain parts run from the residue outwards. [ ]: non-standard residue; d: D form. The star is where a group is joined. C20 diacid = O=C(O)CCCCCCCCCCCCCCCCCCC(=O)*; C18 diacid = O=C(O)CCCCCCCCCCCCCCCCC(=O)*; C16 diacid = O=C(O)CCCCCCCCCCCCCCC(=O)*; γGlu = O=C(O)[C@H](CCC(=O)[*:2])N[*:1]; NMeI = CC[C@H](C)[C@H](NC)C(=O)O; Pentanoyl = CCCCC(=O)*; AEEA = NCCOCCOCC(=O)O; Aib = CC(C)(N)C(=O)O

Columns and labels:
[1] = target: T1, CFR1R receptor (Homo sapiens, UniProt P34998); assay: Activity at anti-target CFR1R receptor, cAMP assay in CRF1R-overexpression CHO-K1 cells; format: cell-based; conditions: 100% = Sauvagine at 100 nM; for EC50: cAMP
T1 construct: host or cells: CHO-K1 (clone 2)
T1 sequence (P34998 24-415): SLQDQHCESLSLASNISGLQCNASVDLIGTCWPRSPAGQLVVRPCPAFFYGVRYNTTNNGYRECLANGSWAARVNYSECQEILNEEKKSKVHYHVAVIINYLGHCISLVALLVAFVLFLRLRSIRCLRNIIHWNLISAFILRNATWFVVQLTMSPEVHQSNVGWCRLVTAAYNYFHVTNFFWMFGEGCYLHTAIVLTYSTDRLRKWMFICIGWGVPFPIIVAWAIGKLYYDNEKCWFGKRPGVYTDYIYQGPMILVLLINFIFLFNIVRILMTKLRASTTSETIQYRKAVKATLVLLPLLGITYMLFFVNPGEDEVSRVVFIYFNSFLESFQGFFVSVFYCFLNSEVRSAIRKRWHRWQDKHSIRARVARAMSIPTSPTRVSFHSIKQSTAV
Outline: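 cAMP readout in CRF1R-overexpressing CHO-K1 cells (clone 2), run as for the TeloHAEC assay at 4000 cells/well final. Cells came from cryopreserved banks. Sauvagine at 100 nM defined 100% activation.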

[2] = Chemical stability in buffer (pH 7.4 / pH 4.5), % purity loss; format: physicochemical; conditions: 40° C. vs 5° C., 14 or 28 days; for Buffer stability pH 7.4 % purity loss: 100 mM phosphate buffer pH 7.4
Outline: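 Compounds dissolved at 10 mg/mL target in 100 mM phosphate (pH 7.4) or 100 mM acetate (pH 4.5) buffer for 1 h at room temperature, then centrifuged. Diluted supernatant stored at 5 °C or 40 °C for 14 or 28 days; % purity loss by LC-UV.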

[3] = In vitro plasma stability, minipig plasma; format: in vitro ADME; design: remaining at 2 h: dose or concentration left out as unconfirmed; conditions: pig, plasma; Minipig PLM, 37° C.
[4] = In vitro plasma stability, rat plasma; format: in vitro ADME; design: remaining at 2 h: dose or concentration left out as unconfirmed; conditions: male, Sprague Dawley, plasma; Rat PLM, 37° C.
Method: (§1) In vitro plasma metabolic stability was studied in male Sprague Dawley rats and human. Test compounds were incubated at 3 M for 2 hours at 37° C. At each time point (0, 0.25, 1 and 2 h), samples were prepared for analysis by means of a single step protein precipitation technique by adding 150 μL of ethanol, 0.1% formic acid to 50 μL aliquots of plasma. Samples were mixed by vortex for homogeneity and then subjected to centrifugation at 14000 rpm for 15 min. The supernatant (100 μL) was collected, diluted with 100 μL of water, 0.1% formic acid and analyzed by LC-HRMS (TripleTOF 6600+, AB Sciex). For each test compound, the area ratios at each time point were compared to the 0 h area ratio and converted to a percentage remaining.

[5] = In vitro plasma stability, human plasma; format: in vitro ADME; design: dose or concentration left out as unconfirmed; conditions: Human PLM, 37° C.
Method: as §1

[6] = target: T2, human CRF2a receptor (Homo sapiens, UniProt Q13324); assay: Activity at human CRF2a receptor, cAMP functional assay in TeloHEAC cells; format: cell-based; conditions: TeloHEAC cells stably expressing human CRF2a receptor, relative to urocortin 2 (100 nM = 100%)
T2 construct: expressed in transfected cells; host or cells: TeloHEAC cells
T2 sequence (Q13324 1-411): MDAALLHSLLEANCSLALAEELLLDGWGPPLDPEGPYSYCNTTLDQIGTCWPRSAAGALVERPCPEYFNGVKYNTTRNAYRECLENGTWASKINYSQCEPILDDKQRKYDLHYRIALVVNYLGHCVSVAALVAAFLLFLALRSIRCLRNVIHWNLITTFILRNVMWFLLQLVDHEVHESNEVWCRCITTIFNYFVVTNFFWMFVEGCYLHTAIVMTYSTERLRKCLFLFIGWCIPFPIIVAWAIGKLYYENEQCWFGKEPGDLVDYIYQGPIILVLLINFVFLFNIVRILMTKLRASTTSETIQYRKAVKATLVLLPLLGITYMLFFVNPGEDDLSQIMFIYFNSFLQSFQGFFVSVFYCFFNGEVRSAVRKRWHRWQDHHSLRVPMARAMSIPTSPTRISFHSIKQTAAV
Outline: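 cAMP accumulation was measured by HTRF 665/620 nm ratio after 30 min at 37° C compound exposure (16 twofold dilutions) of CRF2a-expressing TeloHEAC cells, 10000/well, in HEPES-buffered HBSS plus IBMX. Activity was normalised to urocortin 2 at 100 nM (100%), and EC50 was the concentration giving half-maximal activation.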

[7] = Pharmacokinetics in male Sprague Dawley rats after subcutaneous administration; format: in vivo; conditions: plasma, rat; for AUC(0-t) / half-life: IV
[8] = In vitro subcutaneous tissue supernatant (SCts) stability and metabolite identification, rat; format: in vitro ADME; design: remaining at 2 h: dose or concentration left out as unconfirmed; conditions: male, Sprague Dawley; rat subcutaneous tissue supernatant (SCts), 37° C, 2 h
[9] = target: T3, rat CRF2 a (Rattus norvegicus, UniProt P47866); assay: Activity at rat CRF2 a, cAMP assay in A7R5 rat aortic smooth muscle cells; format: cell-based; conditions: 0% HSA, 100% = Sauvagine at 100 nM
T3 construct: host or cells: A7R5 rat aortic smooth muscle cells
T3 sequence (P47866 27-431 isoform P47866-2 limits assumed): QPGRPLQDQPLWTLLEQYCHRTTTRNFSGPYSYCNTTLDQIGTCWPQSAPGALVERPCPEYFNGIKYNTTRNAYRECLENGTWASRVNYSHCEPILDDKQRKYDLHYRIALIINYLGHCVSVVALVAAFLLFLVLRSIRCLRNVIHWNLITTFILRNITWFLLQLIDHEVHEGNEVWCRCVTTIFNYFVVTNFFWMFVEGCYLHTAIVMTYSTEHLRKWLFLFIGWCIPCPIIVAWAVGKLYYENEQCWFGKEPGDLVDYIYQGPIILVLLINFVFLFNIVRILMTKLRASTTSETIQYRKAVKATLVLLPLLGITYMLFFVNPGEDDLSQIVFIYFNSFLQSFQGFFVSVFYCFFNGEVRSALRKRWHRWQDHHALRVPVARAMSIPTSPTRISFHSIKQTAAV
Method: The A7R5 rat aortic smooth muscle cell line used in this study was purchased from ATCC.
Cells were grown in a 10 cm dish at 37° C./5% CO2 in medium (DMEM/10% FBS) to near confluence. At that stage, cells were harvested, resuspended to 10 million/mL in culture medium and with 5% DMSO. 1 mL vial aliquots were slowly frozen to −80° C. in isopropanol and then transferred in liquid nitrogen for storage.
These vials were used to run the experiment following the procedure reported in the previous paragraph, except for the compound used in the control well to define the 100% activation (Sauvagine at 100 nM) and the cell density (final cell density: 5000 cells/well).

[10] = Pharmacokinetics in male Sprague Dawley rats after subcutaneous administration; format: in vivo; conditions: plasma, rat, SC
[11] = system: Sprague Dawley rats; assay: Effect on systolic blood pressure, telemetry in Sprague Dawley rats; format: in vivo, rat; conditions: 0.1 mg/kg SC
Outline: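 Sprague Dawley rats with abdominal-aorta telemetry catheters, recovered ≥10 days, received 0.1 mg/kg SC of compound or vehicle. Systolic pressure recorded 1 h pre-dose as baseline, then continuously up to 48 hours, expressed as % change from baseline; duration of action is last time point with a BP effect (n=2).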

[12] = Rat PLM; conditions: male Sprague Dawley rats, 37° C., up to 2 hours
[13] = Human PLM; conditions: 37° C., up to 2 hours

CCCCC(=O)N[C@H](C(=O)N[C@@H](CC(C)C)C(=O)N[C@@H](CO)C(=O)N[C@@H](CC(C)C)C(=O)N[C@@H](CC(=O)O)C(=O)N[C@@H](C(=O)N1CCC[C@H]1C(=O)N[C@H](C(=O)N[C@@H](CCCCN)C(=O)N[C@@H](CC(C)C)C(=O)N[C@@H](CCCCNC(=O)CC[C@H](NC(=O)CCCCCCCCCCCCCCC(=O)O)C(=O)O)C(=O)N[C@@H](CCCCN)C(=O)N[C@H](C(=O)N[C@@H](CC(C)C)C(=O)N[C@@H](CC(C)C)C(=O)N[C@@H](CCC(=O)O)C(=O)N[C@@H](CCC(N)=O)C(=O)N[C@@H](CCC(=O)O)C(=O)N[C@@H](CCCCN)C(=O)N[C@@H](CCC(N)=O)C(=O)N[C@@H](CCCCN)C(=O)N[C@@H](CCCCN)C(=O)N[C@@H](CCC(N)=O)C(=O)N[C@@H](CCCNC(=N)N)C(=O)N[C@@H](CCC(=O)O)C(=O)N[C@@H](CCC(N)=O)C(=O)N[C@@H](C)C(=O)N[C@@H](CCC(=O)O)C(=O)N[C@H](C(=O)N[C@@H](CC(N)=O)C(=O)NC(C)(C)C(=O)N[C@@H](CCC(N)=O)C(=O)N[C@H](C(=O)N[C@@H](CC(C)C)C(=O)N[C@@H](C)C(=O)N[C@@H](CCC(N)=O)C(=O)N[C@H](C(N)=O)C(C)C)[C@@H](C)CC)[C@@H](C)O)[C@@H](C)CC)[C@@H](C)CC)C(C)C)C(C)C [compound 80] (Pentanoyl-VLSLD[dV]PIKLK([γGlu-C16 diacid])KILLEQEKQKKQREQAETN[Aib]QILAQV-NH2)
Emax (% I) [1]: 10 % I | EC50 [1]: > 250 nM | Buffer stability pH 7.4 % purity loss [2]: 0/nd ^ % | remaining at 2 h [3]: 104% | remaining at 2 h [4]: 98% | remaining at 2 h [5]: 101% | EC50 [6]: 0.35 nM

CC[C@H](C)[C@H](NC)C(=O)N[C@H](C(=O)N[C@@H](CC(C)C)C(=O)N[C@@H](CO)C(=O)N[C@@H](CC(C)C)C(=O)N[C@@H](CC(=O)O)C(=O)N[C@@H](C(=O)N1CCC[C@H]1C(=O)N[C@H](C(=O)N[C@@H](CCCCN)C(=O)N[C@@H](CC(C)C)C(=O)N[C@@H](CCCCNC(=O)COCCOCCNC(=O)CC[C@H](NC(=O)CCCCCCCCCCCCCCCCCCC(=O)O)C(=O)O)C(=O)N[C@@H](CCCCN)C(=O)N[C@H](C(=O)N[C@@H](CC(C)C)C(=O)N[C@@H](CC(C)C)C(=O)N[C@@H](CCC(=O)O)C(=O)N[C@@H](CCC(N)=O)C(=O)N[C@@H](CCC(=O)O)C(=O)N[C@@H](CCCCN)C(=O)N[C@@H](CCC(N)=O)C(=O)N[C@@H](CCCCN)C(=O)NC(C)(C)C(=O)N[C@@H](CCC(N)=O)C(=O)N[C@@H](CCCNC(=N)N)C(=O)N[C@@H](CCC(=O)O)C(=O)N[C@@H](CCC(N)=O)C(=O)N[C@@H](C)C(=O)N[C@@H](CCC(=O)O)C(=O)N[C@H](C(=O)N[C@@H](CC(N)=O)C(=O)NC(C)(C)C(=O)N[C@@H](CCC(N)=O)C(=O)N[C@H](C(=O)N[C@@H](CC(C)C)C(=O)N[C@@H](C)C(=O)N[C@@H](CCC(N)=O)C(=O)N[C@H](C(N)=O)C(C)C)[C@@H](C)CC)[C@@H](C)O)[C@@H](C)CC)[C@@H](C)CC)C(C)C)C(C)C [compound 234] (H-[NMeI]VLSLD[dV]PIKLK([AEEA-γGlu-C20 diacid])KILLEQEKQK[Aib]QREQAETN[Aib]QILAQV-NH2)
AUC(0-t) ([7]; 0.025 mg/kg): 2700 ng·h/mL | half-life ([7]; 0.025 mg/kg): 7 h | remaining at 2 h [8]: 68% | EC50 [9]: 0.05 nM | AUC(0-t) ([10]; 0.05 mg/kg): 2730 ng·h/mL | Cmax ([10]; 0.05 mg/kg): 95 ng/mL | Tmax ([10]; 0.05 mg/kg): 6 h | half-life ([10]; 0.05 mg/kg): 7.5 h | Emax (% I) [1]: 15 % I | EC50 [1]: > 250 nM | Buffer stability pH 4.5 % purity loss ([2]; 100 mM acetate buffer pH 4.5): 0.0% | Buffer stability pH 7.4 % purity loss [2]: −0.1% | EC50 [6]: 0.09 nM

CC[C@H](C)[C@H](NC)C(=O)N[C@H](C(=O)N[C@@H](CC(C)C)C(=O)N[C@@H](CO)C(=O)N[C@@H](CC(C)C)C(=O)N[C@@H](CC(=O)O)C(=O)N[C@@H](C(=O)N1CCC[C@H]1C(=O)N[C@H](C(=O)N[C@@H](CCCCN)C(=O)N[C@@H](CC(C)C)C(=O)N[C@@H](CCCCNC(=O)CC[C@H](NC(=O)CCCCCCCCCCCCCCCCC(=O)O)C(=O)O)C(=O)N[C@@H](CCCCN)C(=O)N[C@H](C(=O)N[C@@H](CC(C)C)C(=O)N[C@@H](CC(C)C)C(=O)N[C@@H](CCC(=O)O)C(=O)N[C@@H](CCC(N)=O)C(=O)N[C@@H](CCC(=O)O)C(=O)N[C@@H](CCCCN)C(=O)N[C@@H](CCC(N)=O)C(=O)N[C@@H](CCCCN)C(=O)NC(C)(C)C(=O)N[C@@H](CCC(N)=O)C(=O)N[C@@H](CCCNC(=N)N)C(=O)N[C@@H](CCC(=O)O)C(=O)N[C@@H](CCC(N)=O)C(=O)N[C@@H](C)C(=O)N[C@@H](CCC(=O)O)C(=O)N[C@H](C(=O)N[C@@H](CC(N)=O)C(=O)NC(C)(C)C(=O)N[C@@H](CCC(N)=O)C(=O)N[C@H](C(=O)N[C@@H](CC(C)C)C(=O)N[C@@H](C)C(=O)N[C@@H](CCC(N)=O)C(=O)N[C@H](C(N)=O)C(C)C)[C@@H](C)CC)[C@@H](C)O)[C@@H](C)CC)[C@@H](C)CC)C(C)C)C(C)C [compound 145] (H-[NMeI]VLSLD[dV]PIKLK([γGlu-C18 diacid])KILLEQEKQK[Aib]QREQAETN[Aib]QILAQV-NH2)
AUC(0-t) ([7]; 0.05 mg/kg): 4100 ng·h/mL | half-life ([7]; 0.05 mg/kg): 5.8 h | Tmax ([7]; SC, 0.1 mg/kg): 8 h | remaining at 2 h [8]: 76% | EC50 [9]: 0.05 nM | Systolic blood pressure (Mean) % change from baseline, 8 h ([11]; 8 h, n=2): −23% | Systolic blood pressure (Mean) % change from baseline, 12 h ([11]; 12 h, n=2): −21% | Systolic blood pressure (Mean) % change from baseline, 24 h ([11]; 24 h, n=2): −14% | Duration of action ([11]; last time point with an effect on BP still observed): >24 h | AUC(0-t) ([10]; 0.1 mg/kg): 4200 ng·h/mL | Cmax ([10]; 0.1 mg/kg): 295 ng/mL | Buffer stability pH 7.4 % purity loss [2]: 0.0/Not Tested %

Ac-IVLSLDvPIKLK*KILLEQEKQKKQREQAETN4-PipQILAQV-NH2
not cleaved [12]: 96% remaining at 2 hours | not cleaved [13]: 104% remaining at 2 hours
